Measurements as given in patent publication US20170152245A1 (National Taiwan University, priority 2015, published 2017).

Columns and labels:
mouse PRP = assay: Ex vivo mouse PRP aggregation caused by U46619; assay type: in vivo, mice; details: 10 μg/g i.v.; U46619 0.125 μM; compared to nstpbp5185
Procedure: Mice were i.v. injected with vehicle, nstpbp5185 (10 μg/g) or Ctkf6f2 (10 μg/g). The blood samples were collected within 10 mins by intracardiac puncture for PRP, and U46619 (0.125 μM) was added. Platelet aggregation was measured turbidimetrically using platelet aggregometer. Shown are representative of three independent experiments.
Furthermore, the platelet aggregation was evaluated on ex vivo mouse model. The mouse was i.v. administered with compound 5185 (10 μg/g) or Ctkf6f2 (10 μg/g), compared to the vehicle-treated control. The blood was collected and evaluated for its response to U46619 (0.125 μM) on the aggregometer (FIG. 10).

[1] = tested on: human platelet-rich plasma; assay: U46619-induced platelet aggregation in human platelet-rich plasma; assay type: cell-based; details: U46619 1 μM
Procedure: (§1) Human platelet suspension (PS) was prepared according to the method described previously. Briefly, blood sample, freshly obtained from healthy volunteers who had taken no medications during the preceding 2 weeks, was treated with acid citrate/dextrose (ACD) in a volume ratio of 9:1. After centrifugation at 120 g, 25° C. for 9 min, platelet-rich plasma was transferred into another plastic tube and incubated with heparin (6.4 U/ml) as well as prostaglandin E1 (1 μM). Platelets were spun down by centrifugation at 500 g, 25° C. for 8 min and subsequently washed two times with Tyrode solution (NaH2PO4 0.4 mM; NaCl 136.9 mM; KCl […]; NaHCO3 11.9 mM; CaCl2 2 mM; MgCl2 2.1 mM; glucose 11.1 mM; BSA 3.5 mg/ml; pH 7.35-7.4). The washed platelets were finally suspended in Tyrode's solution and the platelet count was adjusted to 3.75×10^8 platelets/ml. For platelet-rich plasma (PRP) preparation, whole blood was anticoagulated with 1/10 vol of sodium citrate (3.8%, w/v) and centrifuged at 150 g, 25° C. for 9 min.
(§2) Platelet aggregation was measured turbidimetrically with a Lumi-aggregometer (Payton Scientific) at 37° C. under stirring condition (900 rpm). […] The extent of platelet aggregation was determined by recording the increase of light transmission relative to that of control (maximal aggregation, as 100%) for 6 min after the addition of inducer. […]

[2] = tested on: human platelet-rich plasma; assay: Arachidonic acid-induced platelet aggregation in human platelet-rich plasma; assay type: cell-based; details: arachidonic acid 200 μM
Procedure: as §1, §2

mice = assay: OVA-induced asthmatic mice (sensitization and airway challenge); assay type: in vivo
Procedure: Mice were divided into groups receiving the following treatments: (1) sham sensitization plus challenge with phosphate buffered saline (PBS) (n=5), (2) sensitization plus challenge with OVA (Sigma A5503; Sigma, St. Louis, Mo.) (n=10), and (3 and 4) sensitization with OVA (i.p.) plus challenge with and nstpbp5185 (10 or 20 mg/kg) (n=6-7). […] Mice were challenged through the airway with 100 μg OVA in 40 μL PBS buffer via intranasal administration (i.n.) days 36, 37 and 38 and AHR induced by methacholine (MCh) were measured at day 39. Animals were sacrificed 24 h after the AHR measurement. The mice were placed in the main chamber of a whole body plethysmograph (Buxco Electronics, Inc., Sharon, Conn., USA) and challenged with aerosolized 0.9% normal saline accompanied by increasing doses of methacholine (6.25-50 mg/ml). Each nebulization lasted for 3 min, and after each nebulization, recordings were taken and averaged for the 3 min. The Penh values were determined, and the data were expressed as Penh values.
Serum were collected and stored at −70° C. after centrifugation (3000 rpm, 10 min). The amount of OVA-specific IgE was determined by ELISA. Briefly, 96-well plates were coated with OVA at 10 μg/well. After the plates were blocked, 100 μl/well of diluted sera was added, and the plates were incubated at room temperature for 2 h or at 4° C. overnight. After incubation, the plates were washed five times with PBS with Tween 20 buffer, the secondary antibody (biotinylated rat anti-mouse IgE; AbD Serotec, Kidlington, UK) was added and plates were incubated for 1 h at room temperature. […] The avidin-horseradish peroxidase was removed by washing with PBS with Tween 20 buffer, and the bound enzyme substrate was detected by adding tetramethylbenzidine reagent (KPL, Gaithersburg, Md., USA). […] Optical density was measured at 450 nm (550 nm was used as a reference filter) in a microplate autoreader (Anthos Reader 2010; Anthos Labtec Instruments GmbH, Salzburg, Austria).

Thromboxane synthase = biological target: T1, Thromboxane synthase (Homo sapiens, UniProt P24557); assay: Thromboxane synthase activity (Table III comparison); assay type: biochemical
T1 construct: MDS
T1 sequence (P24557 1-533): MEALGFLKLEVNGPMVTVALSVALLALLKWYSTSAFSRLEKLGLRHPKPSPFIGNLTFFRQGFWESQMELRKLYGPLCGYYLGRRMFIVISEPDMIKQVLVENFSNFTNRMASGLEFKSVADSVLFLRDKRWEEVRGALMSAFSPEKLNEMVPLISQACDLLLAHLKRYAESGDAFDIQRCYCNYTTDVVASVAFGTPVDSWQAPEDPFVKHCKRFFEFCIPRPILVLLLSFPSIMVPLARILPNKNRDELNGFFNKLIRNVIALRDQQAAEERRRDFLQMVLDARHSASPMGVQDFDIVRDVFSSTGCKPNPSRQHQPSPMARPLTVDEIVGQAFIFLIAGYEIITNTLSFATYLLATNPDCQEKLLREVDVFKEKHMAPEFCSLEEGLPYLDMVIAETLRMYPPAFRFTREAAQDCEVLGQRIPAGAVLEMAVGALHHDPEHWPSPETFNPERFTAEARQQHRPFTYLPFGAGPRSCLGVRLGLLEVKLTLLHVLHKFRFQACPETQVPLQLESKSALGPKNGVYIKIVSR
Procedure: These kinases or enzymatic assays were performed by MDS according to the standardized methods

[3] = tested on: human platelet suspension; assay: Thrombin-induced platelet aggregation in human platelet suspension; assay type: cell-based; details: data not shown
Procedure: as §1, §2

[4] = tested on: human platelet suspension; assay: ADP-induced platelet aggregation in human platelet suspension; assay type: cell-based
Procedure: as §1
Platelet aggregation was measured turbidimetrically with a Lumi-aggregometer (Payton Scientific) at 37° C. under stirring condition (900 rpm). Platelet suspensions were prewarmed to 37° C. for 2 min in a silicone-treated glass cuvette. Nstpbp5185 was added 3 min before the addition of platelet-aggregation inducers. The extent of platelet aggregation was determined by recording the increase of light transmission relative to that of control (maximal aggregation, as 100%) for 6 min after the addition of inducer. The final volume and platelet count for measuring platelet aggregation were 500 μl and 3×10^8/ml, respectively.

**Q.** `Cc1ccc(-c2nc3ccc(F)cc3n2Cc2cccc(F)c2)o1` [Ctkf6f2, 6-fluoro-1-(3-fluorobenzyl)-2-(5-methyl-2-furyl)benzimidazole] was tested. Which “inhibition of platelet aggregation of PRP induced by U46619, ex vivo” value (mouse PRP) did it give?
**A.** superior inhibition

**Q.** And the IC50 [1]?
**A.** 3.27 ± 1.01 µM

**Q.** And the IC50 [2]?
**A.** 8.87 ± 2.52 µM

**Q.** Which results are given for `Cc1ccc(-c2nc3ccccc3n2Cc2ccccc2)o1` [Example 6, 1-Benzyl-2-(5-methyl-2-furyl)benzimidazole]?
**A.** cellular infiltration of the airways (mice; 10 and 20 mg/kg/day): reduced; OVA-specific IgE, IgG2a and IgG1 levels in serum (mice; 10 or 20 mg/kg): significant reduction; asthma symptoms after OVA challenge (mice; Group 3 and Group 4 (10 or 20 mg/kg)): alleviated symptoms; Thromboxane synthase (Thromboxane synthase; Table III arrows): ↓; IC50 (Thromboxane synthase; read-out: Thromboxane synthase inhibition IC50): 10 µM; effect on platelet aggregation caused by thrombin [3]: little effects; effect on platelet aggregation caused by ADP ([4]; data not shown): little effects; % inhibition ADF ([4]; human platelet suspension, preliminary, compound concentration not given): 10.9%
